Our source for the GI50 and TGI values is PubChem BioAssay (NCI).

Several values for one entry are separate records, joined by “and”; a condition that tells them apart may be missing. Equal values may be shown once.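 Growth conditions: 96-well plates. Treatment: test compound, 48 hours, 5 concentrations. Analysis: linear interpolation between bracketing concentrations; unreached endpoints set to highest concentration. GI50: concentration for 50% inhibition of growth. TGI: concentration producing complete growth inhibition.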

Holding throughout (test): growth of human tumour cells (NCI), 48 h
Assay [1] concerns NCI-H460 lung.
Assay [2] has as its system COLO 205 colon.
Assay [3] has as its system PC-3 prostate.
In assay [4] the test system is A549 NSCLC.
For assay [5], the system named is OVCAR-3 ovarian.
In assay [6] the test system is NCI-H226 lung.
The test system of assay [7] is UACC-257 melanoma.
Assay [8] deals with NCI/ADR-RES ovarian.
In assay [9] the test system is MDA-MB-231 breast.
The test system of assay [10] is HL-60(TB) leukemia.

With `C[C@]12CC[C@@H]3c4ccc(O)cc4CC[C@H]3[C@@H]1CC[C@@H]2NS(=O)(=O)c1ccc(-c2ccccc2)cc1`, the GI50 in assay [1] was 3.05 µM; in assay [2], 1.86 µM; in assay [3], 3.18 µM; in assay [4] it was 3.26 µM; in assay [5], 3.32 µM; in [6], 3.13 µM. Further, the GI50 in [7] is 4.26 µM; in assay [8], 3.87 µM; in assay [9] it was 4.58 µM; in assay [10] it was 6.26 µM. The TGI in assay [1] is 9.48 µM; in assay [2], 3.38 µM; in assay [3] it was 48.9 µM; in assay [4], over 100 µM; in assay [5], 12.7 µM; in assay [6], 19.4 µM. For the same molecule, the TGI in [7] is 32.6 µM; in [8], over 100 µM; in assay [9], 19.6 µM; in [10] it was 47.6 µM.
Regarding `COc1cc2c(cc1OC)[C@H]1C(=O)c3cc4c(cc3[C@H]1N(C)C2=O)OCO4`, the TGI in [1] was over 100 µM; in assay [2], over 46.4 µM; in assay [3], over 100 µM; in [4], over 100 µM; in assay [5], over 100 µM; in assay [6] it was over 100 µM. Also, the TGI in assay [7] was over 100 µM; in [8] it was over 100 µM; in [9] it was over 100 µM; in assay [10], over 68.6 µM.
On to `COc1cc(C2c3cc4c(cc3[C@@H](Nc3cccc(O)c3)C3COC(=O)[C@H]23)OCO4)cc(OC)c1O` (some centres undefined), for which the GI50 was 0.145 µM in assay [1]; 0.579 µM in assay [4]; 0.423 µM in [6]; 0.925 µM in assay [7]; 0.23 µM in assay [10]. The TGI in assay [1] is 3.55 µM; in assay [2], 23.1 µM; in assay [3], 15.4 µM; in [4], 7.03 µM; in assay [5], 12.6 µM; in assay [6] it was 0.902 µM and 4.04 µM. The TGI in assay [7] was 16.9 µM; in [8] it was 21.5 µM; in assay [9] it was 24.2 µM; in assay [10], 0.802 µM and 2.73 µM.
For the molecule `O=c1[nH]c(-c2ccccn2)nc2sc3c(c12)CCCCCC3`, the GI50 in assay [1] was 1.91 µM; in assay [2] it was 5.85 µM; in assay [3], 4.05 µM; in [4], 2.57 µM; in assay [5], 8.51 µM; in assay [6] it was over 100 µM. Further, the GI50 was over 100 µM in [7], 0.961 µM in [8], 8.76 µM in assay [9] and 3.39 µM in assay [10]. For the same molecule, the TGI in assay [1], in assay [2], in assay [3], in assay [4], in assay [5] and in assay [6] was over 100 µM each time. The TGI in [7], in assay [8], in [9] and in [10] was over 100 µM throughout.
Take `CC(=O)Nc1ccc(-n2cnc3cc(-c4ccc(OCCN5CCCCC5)cc4)ccc32)cc1`: the GI50 in assay [1] was 1.49 µM; in assay [2] it was 5.2 µM; in [3], 3.91 µM; in assay [4] it was 1.4 µM; in assay [5], 5.27 µM; in [6], 2.92 µM. Also, the GI50 in assay [7] was 5.9 µM; in assay [8], 7.75 µM; in [9], 5.33 µM; in [10] it was 5.26 µM. The TGI stood at 5.3 µM in [1]; 10.7 µM in assay [2]; 9.83 µM in assay [3]; 5.74 µM in assay [4]; 10.4 µM in assay [5]; 8.43 µM in assay [6]. In addition, the TGI was 12 µM in assay [7], 22.5 µM in assay [8], 13 µM in [9] and 18.2 µM in assay [10].
Regarding `Cc1csc(Nc2nc(-c3cccc(Cl)c3)nc(C(Cl)(Cl)Cl)n2)n1`, the GI50 in [1] is 1.22 µM; in assay [2], 1.04 µM; in assay [3], 1.27 µM; in assay [4], 1.06 µM; in [5], 1.06 µM; in assay [6] it was over 33.3 µM. Besides, the GI50 is 3.53 µM in [7], 4.15 µM in assay [8], 2.17 µM in [9] and 0.994 µM in [10]. In addition, the TGI was 5.42 µM in assay [1]; 5.43 µM in [2]; 7.85 µM in assay [3]; 5.27 µM in assay [4]; 3.53 µM in assay [5]; over 33.3 µM in assay [6]. The TGI in assay [7] is 28 µM; in assay [8], over 33.3 µM; in assay [9], over 33.3 µM; in [10], 3.81 µM.
As for `O=C(CC(C(=O)O)N1CCOCC1)c1ccccc1` (centres undefined), the TGI in assay [1] is 42.1 µM; in [2], 39.7 µM; in [3] it was 36 µM; in [4], over 100 µM; in assay [5] it was 35.7 µM; in [6], over 100 µM. Besides, the TGI in assay [7] was 27.2 µM; in [8] it was over 100 µM; in assay [9] it was 32.4 µM; in [10] it was 43.6 µM.
For `CCCCCCCCCCCCCCCCCC1=NC(C)(C)CN1CCO`, the GI50 is 1.97 µM in assay [1]; 1.55 µM in assay [2]; 1.63 µM in assay [3]; 1.61 µM in [5]; 2.84 µM in assay [6]; 1.8 µM in assay [7]. Further, the GI50 in assay [8] is 3.16 µM; in assay [9], 1.77 µM; in assay [10], 1.81 µM. In addition, the TGI in assay [1] turned out to be 3.65 µM; in assay [2], 2.93 µM; in assay [3], 4.43 µM; in assay [5], 2.97 µM; in [6], 9.04 µM; in assay [7], 3.57 µM. Also, the TGI in assay [8] worked out at 11.5 µM; in [9] it was 3.41 µM; in assay [10], 4.11 µM.
As for `C=CC[PH+](c1ccccc1)c1ccccc1.C=CC[PH+](c1ccccc1)c1ccccc1.[Cl][Pt][Cl]`, the GI50 in assay [1] is 12.8 µM; in assay [2], 5.39 µM; in assay [3] it was 7.11 µM; in [4] it was 21.8 µM; in assay [5], 3.21 µM; in [6], 16.1 µM. The GI50 in assay [7] was 11.9 µM; in assay [8], 25.1 µM; in assay [9] it was 3.23 µM; in assay [10], 3.34 µM. Also, the TGI in assay [1] is 30.1 µM; in [2] it was 34.1 µM; in assay [3], 24.6 µM; in [4], over 100 µM; in assay [5], 10.4 µM; in assay [6], 33 µM. For the same molecule, the TGI is 31.6 µM in [7], over 100 µM in assay [8], 10.3 µM in assay [9] and 14 µM in assay [10].
Regarding `CC1(C)CC2(C)OC2C2(C1)N=NC(=Nc1ccccc1)O2` (centres undefined), the GI50 in assay [1] was 11.3 µM; in assay [2], 10.9 µM; in [3] it was 11.5 µM; in assay [4], 11 µM; in [5], 2.23 µM; in [6], 10.7 µM. The GI50 in [7] was 4.11 µM; in [8], 4.44 µM; in [9], 2.61 µM; in assay [10], 5.26 µM. Also, the TGI in assay [1] is 31.5 µM; in assay [2] it was 24.9 µM; in assay [3] it was 28.9 µM; in assay [4] it was 39.5 µM; in [5], 4.81 µM; in assay [6], 29.6 µM. For the same molecule, the TGI came to 15.7 µM in assay [7], 55.2 µM in [8], 7.75 µM in assay [9] and 26.1 µM in assay [10].
Turning to `N#CC1(C#N)C2C=CC(C3CCC=C32)C1(C#N)C#N` (centres undefined), the TGI in [1] is over 10 µM; in assay [2], 3.66 µM; in assay [3], over 10 µM; in assay [4], over 10 µM; in [5], over 10 µM; in assay [6], over 10 µM. The TGI in [7] is over 10 µM; in assay [8] it was over 10 µM; in assay [9], over 10 µM; in [10], 3.81 µM.
Take `CCSc1nc(N)c2cnn(C)c2n1`: the GI50 was 31.6 µM in assay [1]; 29.9 µM in assay [2]; 38.9 µM in assay [3]; 52.6 µM in assay [4]; 30.6 µM in assay [5]; 27.4 µM in assay [6]. Further, the GI50 in assay [7] was 67.1 µM; in assay [8], over 100 µM; in assay [9], 25.1 µM; in assay [10], 52.1 µM. The TGI in assay [1] is over 100 µM; in assay [2], over 100 µM; in assay [3] it was over 100 µM; in assay [4], over 100 µM; in assay [5], over 100 µM; in assay [6] it was 69.2 µM. Also, the TGI was over 100 µM in assay [7], over 100 µM in [8], 71 µM in [9] and over 100 µM in [10].
As to `CCOC(=O)C1=C(c2ccccc2)N(Cc2ccccc2)C2(O)C=CC(=O)C3C(=O)N(c4ccccc4)C(=O)C132` (centres undefined), the GI50 in assay [1] is 1.53 µM; in [2] it was 1.74 µM; in assay [3] it was 2.67 µM; in assay [4], 2.96 µM; in [5], 2.11 µM; in [6] it was 2.25 µM. The GI50 in [7] was 2.82 µM; in [8], 2.98 µM; in assay [9], 2.2 µM; in assay [10], 1.8 µM. In addition, the TGI stood at 3.49 µM in [1]; 3.45 µM in assay [2]; 9.32 µM in assay [3]; 11.4 µM in [4]; 4.33 µM in assay [5]; 4.87 µM in assay [6]. Moreover, the TGI in assay [7] turned out to be 8.06 µM; in assay [8] it was 17 µM; in [9], 4.98 µM; in assay [10], 4.58 µM.
Regarding `CCCCCCN(CCCCCC)CC(O)c1cccc2ccc(Cl)cc12` (centres undefined), the GI50 is 6.63 µM in assay [1]; 3.82 µM in [2]; 9.59 µM in assay [3]; 12.2 µM in assay [4]; 13 µM in assay [5]; 4.89 µM in [6]. Also, the GI50 in assay [7] is 12.9 µM; in assay [8] it was 11.4 µM; in [9], 4.18 µM; in assay [10], 9.63 µM. Moreover, the TGI in assay [1] stood at 19.6 µM; in assay [2], 14.9 µM; in assay [3], 25 µM; in [4], 26.4 µM; in assay [5], 26 µM; in assay [6], 18.2 µM. The TGI in [7] was found to be 28.7 µM; in [8] it was 25.1 µM; in assay [9], 16.2 µM; in [10], 24.6 µM.
`COc1cc(OC)c(/C=C/S(=O)(=O)Cc2ccc(OC)c(NCC(=O)O)c2)c(OC)c1`: the GI50 is 0.114 µM and 0.0451 µM in assay [1]; 0.238 µM and 0.274 µM in assay [2]; 0.119 µM and 0.0486 µM in [3]; 0.229 µM and 0.0755 µM in [4]; 0.0935 µM and 0.0702 µM in assay [5]; > 2.44 µM and 0.39 µM in assay [6]. Further, the GI50 in [8] is 0.0678 µM and 0.0332 µM; in assay [9] it was 0.192 µM and 0.196 µM; in assay [10], 0.156 µM and 0.355 µM. In addition, the TGI in assay [1] was over 100 µM; in [2], 0.714 µM and 0.738 µM; in [3], over 100 µM; in assay [4], over 100 µM; in [5], 0.533 µM; in assay [6], over 100 µM. In addition, the TGI in [7] is over 100 µM; in assay [8], over 3.12 µM; in assay [9], over 2.68 µM.
In the case of `C[C@H](NC(=O)CCC(F)(F)F)C(=O)N[C@@H]1C(=O)N(CCO)c2ncccc2-c2ccccc21`, the GI50 in assay [1], in assay [2], in assay [3], in assay [4], in [5] and in [6] was over 100 µM in each case. Further, the GI50 in assay [8], in assay [9] and in [10] was over 100 µM each time. For the same molecule, the TGI in assay [1], in [2], in [3], in assay [4], in assay [5] and in assay [6] was over 100 µM each time. Besides, the TGI in [8], in [9] and in [10] was over 100 µM throughout.
